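Exposure lasted 48 hours, with cells grown in 96-well plates and compounds tested at five concentrations. GI50 = concentration required for 50% inhibition of growth.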 The source made the active and inactive calls. Rule as the data show it: active = GI50 up to about 1.1 µM and inactive = higher.
Experiments:
Assay in all cases: DTP human tumour cell line panel, 48 h
K562 = test system: K562
ACHN = test system: ACHN
SF-268 = test system: SF-268
SNB-75 = test system: SNB-75
HCC 2998 = test system: HCC 2998
M14 = test system: M14
UACC-257 = test system: UACC-257
HCT-116 = test system: HCT-116
MDA-N = test system: MDA-N
NCI-H460 = test system: NCI-H460
SF-295 = test system: SF-295
OVCAR-4 = test system: OVCAR-4
IGROV-1 = test system: IGROV-1
Malme-3M = test system: Malme-3M
NCI-H226 = test system: NCI-H226
SK-MEL-28 = test system: SK-MEL-28
KM12 = test system: KM12
SF-539 = test system: SF-539
KM-20L2 = test system: KM-20L2

Measured: GI50

O=c1oc2ccc(Cl)cc2cc1-c1cn2cc(Cl)ccc2n1
active: MDA-N 0.368 µM | Malme-3M 0.698 µM
inactive: K562 5.05 µM | ACHN > 100 µM | SF-268 > 80.9 µM | SNB-75 > 100 µM | HCC 2998 > 73.6 µM | M14 4.46 µM | UACC-257 > 100 µM | HCT-116 6.3 µM | NCI-H460 14.4 µM | SF-295 10.1 µM | OVCAR-4 > 100 µM | IGROV-1 > 25.8 µM | NCI-H226 > 100 µM | SK-MEL-28 > 100 µM | KM12 2.54 µM | SF-539 > 100 µM

COc1cc2c(c3nc4ccccc4nc13)-c1ccc(SC)c(=O)cc1[C@@H](NC(C)=O)CC2
active: K562 0.0328 µM | SF-268 0.144 µM | SNB-75 0.0313 µM | HCC 2998 0.0935 µM | M14 0.0617 µM | UACC-257 0.069 µM | HCT-116 0.0372 µM | MDA-N 0.0188 µM | NCI-H460 0.0893 µM | SF-295 0.216 µM | OVCAR-4 0.0562 µM | IGROV-1 0.0267 µM | Malme-3M 0.0106 µM | NCI-H226 0.135 µM | KM12 0.0193 µM | SF-539 0.0248 µM
inactive: ACHN 1.15 µM | SK-MEL-28 > 56.4 µM

CCN(CC)CCCNc1n[n+]([O-])c2ccccc2[n+]1[O-]
inactive: K562 6.93 µM | ACHN 6.41 µM | SF-268 26.4 µM | SNB-75 23.1 µM | HCC 2998 3.46 µM | M14 22.4 µM | UACC-257 14.2 µM | HCT-116 11 µM | MDA-N 11.9 µM | NCI-H460 3.99 µM | SF-295 15 µM | OVCAR-4 23.7 µM | IGROV-1 5.73 µM | Malme-3M 11.3 µM | NCI-H226 20.5 µM | SK-MEL-28 63.1 µM | KM12 15 µM | SF-539 20.7 µM

O=C(OC1C#CCSCC#C/C=C\1)c1ccc2c(c1)C(=O)c1ccccc1C2=O (stereo not given)
inactive: K562 > 100 µM | ACHN 55 µM | SF-268 21.6 µM | SNB-75 26.4 µM | HCC 2998 > 100 µM | M14 65.2 µM | UACC-257 > 100 µM | HCT-116 36.5 µM | MDA-N > 100 µM | NCI-H460 > 100 µM | SF-295 28 µM | OVCAR-4 > 100 µM | IGROV-1 34.8 µM | Malme-3M > 100 µM | NCI-H226 48.8 µM | SK-MEL-28 > 100 µM | KM12 > 100 µM | SF-539 15.5 µM

O=C1C(Cl)N(c2cccc([N+](=O)[O-])c2)C1c1c[nH]c2ccccc12 (stereo not given)
inactive: K562 19 µM | SF-268 29.6 µM | SNB-75 22.9 µM | M14 16.1 µM | UACC-257 20.7 µM | HCT-116 19.2 µM | NCI-H460 12.1 µM | SF-295 17.8 µM | OVCAR-4 18.1 µM | KM-20L2 19.9 µM | IGROV-1 16.4 µM | Malme-3M 2.36 µM | SK-MEL-28 23.7 µM | KM12 20.2 µM | SF-539 15.3 µM

CC1=C(Br)C(=O)c2c(O)ccc(O)c2C1=O
active: K562 0.133 µM | ACHN 0.869 µM | M14 0.431 µM | HCT-116 0.303 µM | MDA-N 0.251 µM | OVCAR-4 0.857 µM | Malme-3M 0.295 µM | SK-MEL-28 0.875 µM | SF-539 0.646 µM
inactive: SF-268 1.99 µM | SNB-75 1.51 µM | HCC 2998 1.75 µM | UACC-257 1.13 µM | NCI-H460 1.26 µM | SF-295 1.67 µM | IGROV-1 1.59 µM | NCI-H226 2.67 µM | KM12 1.57 µM

From ChEMBL document CHEMBL1201862, “PubChem BioAssay data set” (2004)
